The text below walks through data of PubChem BioAssay (NCI).

Test systems include A549 NSCLC; COLO 205 colon; EKVX NSCLC; IGROV1 ovarian; MALME-3M melanoma; MDA-MB-435; NCI-H226 lung; NCI-H522 lung; SK-MEL-5 melanoma; SNB-75 CNS.
What all share (test): NCI tumour cell line growth inhibition, 48 h

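Cultured in 96-well plates, cells were exposed to test compound for 48 hours across five concentrations. GI50 = concentration required for 50% inhibition of growth. TGI denotes the concentration required for complete inhibition of growth.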 Where a SMILES comes first, the peptide text is derived from it. [ ]: non-standard residue; d: D form. 2Nal = N[CH](Cc1ccc2ccccc2c1)C(=O)O

With `C[C@@H]1CC[C@@H]2[C@@H](C)C[C@H]3[C@@H]4C(C)(C)OC(=O)[C@]4(C)C(=O)[C@@]23C1=O`, the TGI in the test with A549 NSCLC, with COLO 205 colon, in the test on EKVX NSCLC, with IGROV1 ovarian, in the test on MALME-3M melanoma and with MDA-MB-435 was over 100 µM throughout. The TGI in the test on NCI-H226 lung, in the test with NCI-H522 lung, with SK-MEL-5 melanoma and in the test on SNB-75 CNS was over 100 µM in each case. For the same molecule, in the test on NCI-H522 lung, the GI50 was over 100000 nM.
Take `CC(C)(C)c1ccc(O)c(CN(Cc2cc(C(C)(C)C)ccc2O)C2CCCCC2)c1`: the TGI was over 56.7 µM in the test on A549 NSCLC; 6.81 µM in the test on COLO 205 colon; over 63.7 µM in the test with EKVX NSCLC; 45.9 µM in the test on IGROV1 ovarian; 30.8 µM in the test on MALME-3M melanoma; 29.8 µM in the test on MDA-MB-435. Further, the TGI was over 100 µM in the test on NCI-H226 lung, 33.7 µM with NCI-H522 lung, 28.4 µM with SK-MEL-5 melanoma and 51.3 µM in the test on SNB-75 CNS. Besides, the GI50 in the test with NCI-H226 lung was 28.5 µM.
In the case of `CC(O)CN1c2ccccc2Sc2ccc(Cl)cc21` (stereo unspecified), the TGI in the test on A549 NSCLC, with COLO 205 colon, in the test with EKVX NSCLC, in the test on IGROV1 ovarian, with MALME-3M melanoma and with MDA-MB-435 was over 10 µM in each case. Also, the TGI in the test with NCI-H226 lung, with NCI-H522 lung, in the test with SK-MEL-5 melanoma and with SNB-75 CNS was over 10 µM each time.
Regarding `CN(O)C(=S)c1ccccc1`, the TGI was over 100 µM in the test on A549 NSCLC; 1.75 µM in the test with COLO 205 colon; over 95.2 µM with EKVX NSCLC; 56.3 µM with IGROV1 ovarian; over 100 µM in the test on MALME-3M melanoma; over 100 µM with MDA-MB-435. Moreover, the TGI is over 100 µM in the test with NCI-H226 lung, 0.688 µM in the test on NCI-H522 lung, 16.3 µM in the test with SK-MEL-5 melanoma and over 100 µM in the test with SNB-75 CNS.
For the molecule `CCCCCCN(C)Cc1ccc(OCCOc2ccc(CN(C)CCCCCC)cc2)cc1`, the GI50 with A549 NSCLC is 1.4 µM; in the test on COLO 205 colon, 659 nM; in the test on EKVX NSCLC it was 2.47 µM; with IGROV1 ovarian it was 1330 nM; with MALME-3M melanoma, 1130 nM; in the test on MDA-MB-435 it was 1040 nM. Also, the GI50 was 1.53 µM in the test on NCI-H226 lung, 944 nM in the test with NCI-H522 lung, 1360 nM in the test with SK-MEL-5 melanoma and 1200 nM in the test on SNB-75 CNS. For the same molecule, the TGI in the test with A549 NSCLC stood at 2.91 µM; in the test with COLO 205 colon it was 2.19 µM; with EKVX NSCLC it was 15.1 µM; with IGROV1 ovarian, 3.13 µM; in the test with MALME-3M melanoma, 2.87 µM; with MDA-MB-435, 2.5 µM. Further, the TGI with NCI-H226 lung stood at 3.19 µM; in the test on NCI-H522 lung, 2.25 µM; in the test with SK-MEL-5 melanoma it was 2.66 µM; with SNB-75 CNS, 2.57 µM.
`CCOC(=O)c1cc(-c2ccc(OC)c(OC)c2)[nH]c1N/N=C/c1c(Cl)cccc1Cl`: the GI50 in the test with A549 NSCLC was 3.06 µM; in the test on COLO 205 colon it was 2900 nM; in the test on EKVX NSCLC, 5.37 µM; in the test on IGROV1 ovarian, 2450 nM; in the test with MALME-3M melanoma, 2880 nM; in the test on MDA-MB-435, 307 nM. The GI50 with NCI-H226 lung is 1.81 µM; in the test on NCI-H522 lung, 2270 nM; with SK-MEL-5 melanoma it was 956 nM; with SNB-75 CNS, 1850 nM. The TGI with A549 NSCLC is over 100 µM; in the test with COLO 205 colon it was over 100 µM; in the test on EKVX NSCLC, 19.9 µM; in the test on IGROV1 ovarian it was 30.4 µM; in the test with MALME-3M melanoma it was 16.7 µM; in the test with MDA-MB-435, 0.829 µM. The TGI with NCI-H226 lung turned out to be 9.36 µM; with NCI-H522 lung, 30 µM; in the test on SK-MEL-5 melanoma, 8.33 µM; in the test with SNB-75 CNS it was 5.94 µM.
As for `CC(C)C(NC(=O)C(CCCCN)NC(=O)C(Cc1c[nH]c2ccccc12)NC(=O)C(Cc1ccc(O)cc1)NC(=O)C(CS)NC(=O)C(N)Cc1ccc2ccccc2c1)C(=O)NC(CS)C(=O)NC(C(N)=O)C(C)O` (stereo unspecified) (H-[2Nal]CYWKVCT-NH2; configuration not given here), the GI50 in the test with A549 NSCLC was over 100 µM; with COLO 205 colon, over 100000 nM; with EKVX NSCLC it was over 100 µM; in the test with IGROV1 ovarian, over 100000 nM. Also, the TGI is over 100 µM in the test on A549 NSCLC; over 100 µM in the test on COLO 205 colon; over 100 µM in the test on EKVX NSCLC; over 100 µM in the test with IGROV1 ovarian; over 12.5 µM in the test with MALME-3M melanoma; over 12.5 µM in the test on MDA-MB-435. Besides, the TGI was over 12.5 µM in the test with NCI-H226 lung, over 12.5 µM with NCI-H522 lung, over 12.5 µM in the test with SK-MEL-5 melanoma and over 100 µM with SNB-75 CNS.
As to `COC(=O)C1=C(C(=O)OC)C2OC1c1cc3ccccc3cc12`, the TGI in the test with A549 NSCLC amounted to 37 µM; with COLO 205 colon, 3.39 µM; in the test with EKVX NSCLC, 17.6 µM; in the test on IGROV1 ovarian it was 9.58 µM; in the test on MALME-3M melanoma, 6 µM; with MDA-MB-435, 18 µM. The TGI with NCI-H226 lung turned out to be 11.6 µM; with NCI-H522 lung, 2.9 µM; in the test with SK-MEL-5 melanoma, 30.8 µM; in the test with SNB-75 CNS, 38.7 µM.
Regarding `N#Cc1c(N)nc(N2CCSCC2)c(C#N)c1-c1ccc(O)cc1`, the GI50 is 30.7 µM with A549 NSCLC; 19800 nM with COLO 205 colon; 27.5 µM with EKVX NSCLC; 32600 nM with IGROV1 ovarian; 15200 nM in the test on MALME-3M melanoma; 19000 nM with MDA-MB-435. The GI50 in the test on NCI-H226 lung was 21.9 µM; with NCI-H522 lung, 22000 nM; with SK-MEL-5 melanoma, 12700 nM; with SNB-75 CNS, 10900 nM. Moreover, the TGI in the test with A549 NSCLC is over 100 µM; in the test with COLO 205 colon, 47.1 µM; in the test on EKVX NSCLC, over 100 µM; with IGROV1 ovarian, over 100 µM; in the test with MALME-3M melanoma, 94.4 µM; with MDA-MB-435, 49.6 µM. Moreover, the TGI worked out at 58.5 µM in the test with NCI-H226 lung, 52.7 µM in the test on NCI-H522 lung, 28 µM in the test with SK-MEL-5 melanoma and 30.4 µM in the test on SNB-75 CNS.
On to `CCN(CC)CC(C)(C)C(=O)/C=C/c1ccc(/C=C/C(=O)C(C)(C)CN(CC)CC)cc1`, for which the TGI in the test on A549 NSCLC came to 5.76 µM; in the test on COLO 205 colon, 1.29 µM; in the test with EKVX NSCLC, 3.67 µM; with IGROV1 ovarian, 7.04 µM; with MALME-3M melanoma, 2.79 µM; in the test on MDA-MB-435, 2.16 µM. In addition, the TGI in the test on NCI-H226 lung came out at 6.97 µM; in the test on NCI-H522 lung it was 0.194 µM; with SK-MEL-5 melanoma, 3.7 µM; with SNB-75 CNS, 3.44 µM.
